This test deals with human monocytic cell line U937. The test is described as follows: Human U937 cellular necroptosis assay. The following applies: U-937; U937 cells stimulated with 25 ng/mL human TNFalpha and 25 μM z-VAD-FMK; 22 hr; viability by Cell Titer-Glo 2.0; read-out: hU937 IC50. Format: cell-based. An outline of the steps:
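U937 cells (5000/well) driven to necroptosis by 25 ng/mL human TNFalpha plus 25 μM z-VAD-FMK alongside 1:3-diluted compounds, 22 hr at 37° C, 5% CO2. Viability by CellTiter-Glo luminescence; IC50 from four-parameter logistic fit.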
(Cellular ATP, detected with luciferase, serves as a proxy for viable cell number.)
Usually IC50 stands for the midpoint of a concentration-inhibition curve. `CN1C(=O)[C@@H](NC(=O)c2ncc(Cl)c(-c3ccc(Cl)cc3)n2)COc2cc(C#N)ccc21` [Example 131, (S)-5-chloro-4-(4-chlorophenyl)-N-(8-cyano-5-methyl-4-oxo-2,3,4,5-tetrahydrobenzo[b]-[1,4]oxazepin-3-yl)pyrimidine-2-carboxamide]: the IC50 came out at 22.1 nM.
In the case of `Cc1ccc(-c2nc(C(=O)N[C@H]3COc4cc(C#N)ccc4N(C)C3=O)ncc2Cl)cc1F` [Example 132, (S)-5-chloro-N-(8-cyano-5-methyl-4-oxo-2,3,4,5-tetrahydrobenzo[b]-[1,4]oxazepin-3-yl)-4-(3-fluoro-4-methylphenyl)pyrimidine-2-carboxamide] it was 20.2 nM.
For `Cc1cnc(C(=O)N[C@H]2COc3cc(C#N)ccc3N(C)C2=O)nc1C12CCC(CC1)CC2` [Example 133, (S)-4-(bicyclo[2.2.2]octan-1-yl)-N-(8-cyano-5-methyl-4-oxo-2,3,4,5-tetrahydrobenzo[b]-[1,4]oxazepin-3-yl)-5-methylpyrimidine-2-carboxamide] the value was 160 nM.
For `Cc1cnc(C(=O)N[C@H]2COc3cc(C#N)ccc3N(C)C2=O)nc1C1CCOCC1` [Example 134, (S)-N-(8-cyano-5-methyl-4-oxo-2,3,4,5-tetrahydrobenzo[b]-[1,4]oxazepin-3-yl)-5-methyl-4-(tetrahydro-2H-pyran-4-yl)-pyrimidine-2-carboxamide] the value was 246 nM; for `Cc1cnc(C(=O)N[C@H]2COc3cc(C#N)ccc3N(C)C2=O)nc1-c1cccc(F)c1` [Example 135, (S)-N-(8-cyano-5-methyl-4-oxo-2,3,4,5-tetrahydrobenzo[b]-[1,4]oxazepin-3-yl)-4-(3-fluorophenyl)-5-methylpyrimidine-2-carboxamide], 17.6 nM; for `Cc1cnc(C(=O)N[C@H]2COc3cc(C#N)ccc3N(C)C2=O)nc1-c1ccc(F)cc1` [Example 136, (S)-N-(8-cyano-5-methyl-4-oxo-2,3,4,5-tetrahydrobenzo[b]-[1,4]oxazepin-3-yl)-4-(4-fluorophenyl)-5-methylpyrimidine-2-carboxamide], 14.3 nM.
For `Cc1ccc(-c2nc(C(=O)N[C@H]3COc4cc(C#N)ccc4N(C)C3=O)ncc2C)cc1` [Example 137, (S)-N-(8-cyano-5-methyl-4-oxo-2,3,4,5-tetrahydrobenzo[b]-[1,4]oxazepin-3-yl)-5-methyl-4-(p-tolyl)pyrimidine-2-carboxamide], the half-maximal inhibitory concentration (IC50) came out at 18.8 nM.
For `CN1C(=O)[C@@H](NC(=O)c2ncc(Cl)c(-c3ccc(F)cc3F)n2)COc2cc(C#N)ccc21` [Example 138, (S)-5-chloro-N-(8-cyano-5-methyl-4-oxo-2,3,4,5-tetrahydrobenzo[b]-[1,4]oxazepin-3-yl)-4-(2,4-difluorophenyl)pyrimidine-2-carboxamide], the concentration for half-maximal inhibition (IC50) is 16.4 nM.
In the case of `Cc1ccc(-c2nc(C(=O)N[C@H]3COc4cc(C#N)ccc4N(C)C3=O)ncc2Cl)c(F)c1` [Example 139, (S)-5-chloro-N-(8-cyano-5-methyl-4-oxo-2,3,4,5-tetrahydrobenzo[b]-[1,4]oxazepin-3-yl)-4-(2-fluoro-4-methylphenyl)pyrimidine-2-carboxamide] it was 32.6 nM; in that of `CN1C(=O)[C@@H](NC(=O)c2ncc(Cl)c(-c3ccc(F)cc3F)n2)COc2ccc(NCC(F)(F)CCl)cc21` [Example 140, (S)-5-chloro-N-(7-((3-chloro-2,2-difluoropropyl)amino)-5-methyl-4-oxo-2,3,4,5-tetrahydrobenzo[b]-[1,4]oxazepin-3-yl)-4-(2,4-difluorophenyl)pyrimidine-2-carboxamide], 35.4 nM.
In the case of `CN1C(=O)[C@@H](NC(=O)c2ncc(Cl)c(-c3ccc(F)cc3F)n2)COc2ccc(NCC3(CCl)CCOCC3)cc21` [Example 141, (S)-5-chloro-N-(7-(((4-(chloromethyl)tetrahydro-2H-pyran-4-yl)methyl)amino)-5-methyl-4-oxo-2,3,4,5-tetrahydrobenzo[b]-[1,4]oxazepin-3-yl)-4-(2,4-difluorophenyl)pyrimidine-2-carboxamide] it was 14.5 nM.
As for `CN1C(=O)[C@@H](NC(=O)c2ncc(Cl)c(-c3cc(F)ccc3F)n2)COc2ccc(NCC3(CCl)CCOCC3)cc21` [Example 142, (S)-5-chloro-N-(7-(((4-(chloromethyl)tetrahydro-2H-pyran-4-yl)methyl)amino)-5-methyl-4-oxo-2,3,4,5-tetrahydrobenzo[b]-[1,4]oxazepin-3-yl)-4-(2,5-difluorophenyl)pyrimidine-2-carboxamide], the half-inhibitory concentration (IC50) turned out to be 19 nM.
In the case of `CN1C(=O)[C@@H](NC(=O)c2ncc(Cl)c(-c3ccc(F)cc3F)n2)COc2ccc(N3CCOCC3)cc21` [Example 143, (S)-5-chloro-4-(2,4-difluorophenyl)-N-(5-methyl-7-morpholino-4-oxo-2,3,4,5-tetrahydrobenzo[b]-[1,4]oxazepin-3-yl)pyrimidine-2-carboxamide] it was 71 nM.
Take `CN1C(=O)[C@@H](NC(=O)c2ncc(Cl)c(-c3cc(F)ccc3F)n2)COc2ccc(N3CC4(CCOCC4)C3)cc21` [Example 144, (S)-5-chloro-4-(2,5-difluorophenyl)-N-(5-methyl-4-oxo-7-(7-oxa-2-azaspiro[3.5]nonan-2-yl)-2,3,4,5-tetrahydrobenzo[b]-[1,4]oxazepin-3-yl)pyrimidine-2-carboxamide]: the IC50 worked out at 15.8 nM.
For `Cc1ccc(-c2nc(C(=O)N[C@H]3COc4ccc(N5CC6(CCOCC6)C5)cc4N(C)C3=O)ncc2Cl)cc1F` [Example 145, (S)-5-chloro-4-(3-fluoro-4-methylphenyl)-N-(5-methyl-4-oxo-7-(7-oxa-2-azaspiro[3.5]nonan-2-yl)-2,3,4,5-tetrahydrobenzo[b]-[1,4]oxazepin-3-yl)pyrimidine-2-carboxamide] the value was 11 nM.
For the compound `COCCOc1ccc2c(c1)N(C)C(=O)[C@@H](NC(=O)c1ncc(Cl)c(-c3ccc(F)cc3F)n1)CO2` [Example 146, (S)-5-chloro-4-(2,4-difluorophenyl)-N-(7-(2-methoxyethoxy)-5-methyl-4-oxo-2,3,4,5-tetrahydrobenzo[b]-[1,4]oxazepin-3-yl)pyrimidine-2-carboxamide], the 50% inhibitory concentration (IC50) came to 19.4 nM.
In the case of `CN1C(=O)[C@@H](NC(=O)c2ncc(Cl)c(-c3ccc(F)cc3F)n2)COc2ccc(OCC(CO)CCl)cc21` (stereo partly drawn) [Example 147, 5-chloro-N-((3S)-7-(3-chloro-2-(hydroxymethyl)propoxy)-5-methyl-4-oxo-2,3,4,5-tetrahydrobenzo[b]-[1,4]oxazepin-3-yl)-4-(2,4-difluorophenyl)pyrimidine-2-carboxamide], the IC50 was 20.9 nM.
`CN1C(=O)[C@@H](NC(=O)c2ncc(Cl)c(-c3ccc(F)cc3F)n2)COc2ccc(Oc3ccn(C)n3)cc21` [Example 148, (S)-5-chloro-4-(2,4-difluorophenyl)-N-(5-methyl-7-((1-methyl-1H-pyrazol-3-yl)oxy)-4-oxo-2,3,4,5-tetrahydrobenzo[b]-[1,4]oxazepin-3-yl)pyrimidine-2-carboxamide]: the IC50 turned out to be 8.58 nM.
For `CN1C(=O)[C@@H](NC(=O)c2ncc(Cl)c(-c3ccc(F)cc3F)n2)COc2ccc(-c3ccnn3C)cc21` [Example 149, (S)-5-chloro-4-(2,4-difluorophenyl)-N-(5-methyl-7-(1-methyl-1H-pyrazol-5-yl)-4-oxo-2,3,4,5-tetrahydrobenzo[b]-[1,4]oxazepin-3-yl)pyrimidine-2-carboxamide] the value was 19.8 nM; for `CN1C(=O)[C@@H](NC(=O)c2ncc(Cl)c(-c3ccc(F)cc3F)n2)COc2ccc(-c3cnn(C)c3)cc21` [Example 150, (S)-5-chloro-4-(2,4-difluorophenyl)-N-(5-methyl-7-(1-methyl-1H-pyrazol-4-yl)-4-oxo-2,3,4,5-tetrahydrobenzo[b]-[1,4]oxazepin-3-yl)pyrimidine-2-carboxamide], 14.2 nM.
For `CN1C(=O)[C@@H](NC(=O)c2ncc(Cl)c(-c3ccc(F)cc3F)n2)COc2ccc(-c3cn[nH]c3)cc21` [Example 151] the value was 13 nM.
In the case of `Cc1cnn(-c2ccc3c(c2)N(C)C(=O)[C@@H](NC(=O)c2ncc(Cl)c(-c4ccc(F)cc4F)n2)CO3)c1` [Example 152, (S)-5-chloro-4-(2,4-difluorophenyl)-N-(5-methyl-7-(4-methyl-1H-pyrazol-1-yl)-4-oxo-2,3,4,5-tetrahydrobenzo[b]-[1,4]oxazepin-3-yl)pyrimidine-2-carboxamide] it was 29.2 nM; in that of `Cc1ccc(-c2nc(C(=O)N[C@H]3COc4ccc(CN5CCn6ncnc6C5)cc4N(C)C3=O)ncc2Cl)cc1F` [Example 153, (S)-5-chloro-N-(7-((5,6-dihydro-[1,2,4]triazolo[1,5-a]pyrazin-7(8H)-yl)methyl)-5-methyl-4-oxo-2,3,4,5-tetrahydrobenzo[b]-[1,4]oxazepin-3-yl)-4-(3-fluoro-4-methylphenyl)pyrimidine-2-carboxamide], 10 nM.
With `CN1C(=O)[C@@H](NC(=O)c2ncc(Cl)c(-c3ccc(F)cc3F)n2)COc2cc(CN3CCn4ncnc4C3)ccc21` [Example 154, (S)-5-chloro-4-(2,4-difluorophenyl)-N-(8-((5,6-dihydro-[1,2,4]triazolo[1,5-a]pyrazin-7(8H)-yl)methyl)-5-methyl-4-oxo-2,3,4,5-tetrahydrobenzo[b]-[1,4]oxazepin-3-yl)pyrimidine-2-carboxamide], the half-maximal inhibitory concentration (IC50) stood at 32.1 nM.
In the case of `CN1C(=O)[C@@H](NC(=O)c2ncc(Cl)c(-c3cc(F)ccc3F)n2)COc2cc(CN3CCn4ncnc4C3)ccc21` [Example 155, (S)-5-chloro-4-(2,5-difluorophenyl)-N-(8-((5,6-dihydro-[1,2,4]triazolo[1,5-a]pyrazin-7(8H)-yl)methyl)-5-methyl-4-oxo-2,3,4,5-tetrahydrobenzo[b]-[1,4]oxazepin-3-yl)pyrimidine-2-carboxamide] it was 24.8 nM.

The values above are taken from patent publication US12565490B2, “Inhibitors of Receptor Interacting Protein Kinase I for the treatment of disease” (Board of Regents, The University of Texas System, priority 2020, dated 2026).
